The values below come from ChEMBL document CHEMBL1201862, “PubChem BioAssay data set” (2004).

SMILES strings stand for the structures.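 Growth conditions: 96-well plates. Treatment: test compound, 48 hours, 5 concentrations. Analysis: linear interpolation between bracketing concentrations; unreached endpoints set to highest concentration. GI50 = concentration required for 50% inhibition of growth.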 Calls of active or inactive are those of the source. No stated cut-off is given here; in the data, active = GI50 up to about 1.1 µM and inactive = higher. Starred links: 1 amine or outer side, 2 acyl side, 3 side chain; linkers in the order of their positions; H or OH if unused. Positions of bridges follow the written chain, without caps; N, C: chain ends. Non-standard residues stand in square brackets, D forms with d. Residues, ends and D or L forms follow the SMILES beside them. Chains are numbered I, II in the order given. Actinocin(1to9) = Cc1c2oc3c(C)ccc(C(=O)[*:2])c3nc-2c(C(=O)[*:1])c(N)c1=O; NMeV = CN[CH](C(=O)O)C(C)C; Sar = CNCC(=O)O

Some test systems named below: 786-0; A498; ACHN; CAKI-1; HCT-116; HCT-15; HL-60; HT-29; MDA-N; MOLT-4; NCI-H226; NCI-H460; OVCAR-8; PC-3; RXF 393; SK-MEL-2; SK-MEL-5; SW-620; T47D.
Common to all, as to assay: growth of human tumour cells (NCI), 48 h

`CN1CN(c2ccccc2)C2(CCN(C(=O)OC(C)(C)C)CC2)C1=O`: the GI50 with 786-0 was > 100 µM (inactive); with A498, > 100 µM (inactive); in the test with ACHN, > 100 µM (inactive); in the test on CAKI-1 it was > 100 µM (inactive); with HCT-116 it was > 100 µM (inactive); with HCT-15, greater than 100 µM. The GI50 with HL-60, in the test on HT-29, in the test with MDA-N, in the test with MOLT-4, in the test with NCI-H226 and in the test on NCI-H460 was > 100 µM (inactive) throughout. The GI50 with OVCAR-8 was > 100 µM (inactive); in the test on PC-3, > 100 µM (inactive); in the test with RXF 393 it was 63.2 µM (inactive); in the test on SK-MEL-2, > 100 µM (inactive); in the test on SK-MEL-5, > 100 µM (inactive); in the test on SW-620, > 100 µM (inactive). In addition, the GI50 with T47D is > 100 µM (inactive).

In the case of `Nc1ncc(Br)c(NCC2(CO)CCC2)n1`, the GI50 in the test on 786-0 is > 100 µM (inactive); in the test on A498, 35.6 µM (inactive); in the test with ACHN, > 100 µM (inactive); in the test with CAKI-1, 49.8 µM (inactive); in the test on HCT-116 it was > 100 µM (inactive); with HCT-15, greater than 100 µM. Also, the GI50 with HL-60 is > 100 µM (inactive); in the test with HT-29, > 100 µM (inactive); in the test with MDA-N it was > 100 µM (inactive); with MOLT-4, 80 µM (inactive); in the test with NCI-H226, 66.8 µM (inactive); in the test with NCI-H460, 71.9 µM (inactive). Moreover, the GI50 in the test with OVCAR-8 is > 100 µM (inactive); with PC-3 it was > 100 µM (inactive); in the test with RXF 393, > 100 µM (inactive); in the test on SK-MEL-2, > 100 µM (inactive); in the test on SK-MEL-5, 54.5 µM (inactive); in the test with SW-620 it was > 100 µM (inactive). The GI50 in the test with T47D is 1.69 µM (inactive).

On to `S=C1SCN(Cc2ccco2)CN1c1ccc(Br)cc1`, for which the GI50 with 786-0 was 17.1 µM (inactive); in the test with A498, 20 µM (inactive); in the test with ACHN, 16 µM (inactive); with CAKI-1 it was 14.8 µM (inactive); with HCT-116, 12.2 µM (inactive); in the test on HCT-15 it was 8.69 µM. In addition, the GI50 in the test on HL-60 is 13.2 µM (inactive); with HT-29, 13.8 µM (inactive); with MDA-N it was 16.9 µM (inactive); with MOLT-4 it was 17.4 µM (inactive); in the test with NCI-H226, 25.2 µM (inactive); in the test with NCI-H460, 7.33 µM (inactive). Besides, the GI50 is 23.3 µM (inactive) with OVCAR-8; 16.7 µM (inactive) with PC-3; 30.6 µM (inactive) with RXF 393; 13.6 µM (inactive) in the test with SK-MEL-2; 12.1 µM (inactive) in the test on SK-MEL-5; 19.5 µM (inactive) in the test on SW-620. The GI50 in the test with T47D was 20.1 µM (inactive).

On to `CCC(C)C1NC(=O)C(NC(=O)c2c3nc4c(C(=O)NC5C(=O)NC(C(C)CC)C(=O)N6CCCC6C(=O)N(C)CC(=O)N(C)C(C(C)C)C(=O)OC5C)ccc(C)c4oc-3c(C)c(=O)c2N)C(C)OC(=O)C(C(C)C)N(C)C(=O)CN(C)C(=O)C2CCCN2C1=O` (stereo not given) (I: TIP[Sar][NMeV] / II: TIP[Sar][NMeV]; ester I:1-I:C, II:1-II:C; linker I:N-II:N via Actinocin(1to9); configuration not given here), for which the GI50 in the test on 786-0 is 0.000195 µM (active); in the test with A498, 0.0102 µM (active); with ACHN it was 0.00162 µM (active); in the test on CAKI-1, 0.0059 µM (active); in the test on HCT-116, < 0.0001 µM (active); in the test with HCT-15 it was 0.0172 µM. For the same compound, the GI50 in the test on HL-60 was < 0.0001 µM (active); in the test on HT-29 it was < 0.0001 µM (active); in the test on MDA-N, < 0.01 µM (active); in the test with MOLT-4, < 0.0001 µM (active); in the test with NCI-H226, 0.000889 µM (active); with NCI-H460, < 0.0001 µM (active). For the same compound, the GI50 was 0.000262 µM (active) in the test with OVCAR-8; 0.000895 µM (active) in the test on PC-3; 0.00394 µM (active) in the test with RXF 393; 0.00101 µM (active) in the test on SK-MEL-2; 0.000198 µM (active) in the test on SK-MEL-5; 0.000236 µM (active) with SW-620. Besides, in the test on T47D, the GI50 is 0.00173 µM (active).

As to `COc1c(C(CC(C)C)OC(C)=O)ccc2c1C(=O)OCc1cc(C)cc(O)c1O2` (stereo not given), the GI50 with 786-0 was 15.5 µM (inactive); in the test on A498, 20.3 µM (inactive); in the test on ACHN, 10.5 µM (inactive); in the test on CAKI-1, 16.1 µM (inactive); with HCT-116, 12.6 µM (inactive); with HCT-15, 10.1 µM. For the same compound, the GI50 in the test with HL-60 was > 100 µM (inactive); with HT-29, 17.8 µM (inactive); in the test with MDA-N, 15.1 µM (inactive); in the test with MOLT-4, 12.8 µM (inactive); with NCI-H226 it was 14.9 µM (inactive); in the test on NCI-H460, 12.6 µM (inactive). The GI50 with OVCAR-8 was 16.7 µM (inactive); in the test with PC-3 it was 9.73 µM (inactive); in the test with RXF 393, 18.2 µM (inactive); in the test with SK-MEL-2 it was 19.1 µM (inactive); in the test on SK-MEL-5, 11.1 µM (inactive); in the test with SW-620, 17.5 µM (inactive). In addition, in the test with T47D, the GI50 is 11.3 µM (inactive).

Regarding `Fc1ccc(F)c(/C=N/C23CC4CC(CC(C4)C2)C3)c1`, the GI50 in the test with 786-0 is > 10 µM (inactive); in the test on A498, > 10 µM (inactive); in the test on ACHN, > 10 µM (inactive); in the test with CAKI-1 it was > 10 µM (inactive); in the test with HCT-116, > 10 µM (inactive); with HCT-15 it was greater than 10 µM. The GI50 was 2.62 µM (inactive) in the test with HL-60; > 10 µM (inactive) in the test on HT-29; > 10 µM (inactive) with MDA-N; > 10 µM (inactive) with MOLT-4; > 10 µM (inactive) in the test with NCI-H226; > 10 µM (inactive) in the test on NCI-H460. Further, the GI50 in the test on OVCAR-8, in the test on PC-3, with RXF 393, in the test on SK-MEL-2, in the test with SK-MEL-5 and in the test on SW-620 was > 10 µM (inactive) each time. For the same compound, the GI50 in the test with T47D was > 10 µM (inactive).

Take `COc1ccc(C(O)CC(O)(C(F)(F)F)C(F)(F)F)cc1` (stereo not given): the GI50 with 786-0 is 32.4 µM (inactive); in the test with A498, 21.9 µM (inactive); with ACHN, 29.6 µM (inactive); with CAKI-1, 15 µM (inactive); in the test with HCT-116, 16.6 µM (inactive); with HCT-15 it was 34.8 µM. The GI50 in the test on HL-60 is 18.7 µM (inactive); in the test on HT-29, 28.8 µM (inactive); in the test with MDA-N, 46.2 µM (inactive); in the test on MOLT-4, 23.9 µM (inactive); with NCI-H226, 23.2 µM (inactive); with NCI-H460, 27.4 µM (inactive). Besides, the GI50 in the test with OVCAR-8 is 23 µM (inactive); in the test with PC-3, 11 µM (inactive); in the test on RXF 393, 20.1 µM (inactive); in the test on SK-MEL-2, 17.6 µM (inactive); in the test with SK-MEL-5, 21.2 µM (inactive); with SW-620, 33 µM (inactive). The GI50 in the test with T47D was 41.8 µM (inactive).

Take `CC1(CCC(=O)OC2CCCCC2)OCCO1`: the GI50 in the test with 786-0 is > 100 µM (inactive); with A498, > 100 µM (inactive); in the test with ACHN, > 100 µM (inactive); with CAKI-1, > 100 µM (inactive); in the test with HCT-116, > 100 µM (inactive); in the test on HCT-15, greater than 100 µM. Besides, the GI50 in the test on HL-60, in the test with HT-29, with MDA-N, in the test on MOLT-4, with NCI-H226 and in the test with NCI-H460 was > 100 µM (inactive) throughout. The GI50 with OVCAR-8, with PC-3, with RXF 393, in the test with SK-MEL-2, in the test with SK-MEL-5 and in the test on SW-620 was > 100 µM (inactive) each time. The GI50 in the test on T47D is > 100 µM (inactive).

With `COc1ccc(CC2c3cc(OC)c(OC)c(OC)c3CC[N+]2(C)C)cc1Oc1ccc(CC2c3cc4c(c(OC)c3CCN2C)OCO4)cc1` (stereo not given), the GI50 was > 100 µM (inactive) in the test on 786-0; > 100 µM (inactive) in the test on A498; > 100 µM (inactive) with ACHN; > 100 µM (inactive) in the test on CAKI-1; > 100 µM (inactive) in the test on HCT-116; greater than 100 µM in the test with HCT-15. For the same compound, the GI50 is 35.5 µM (inactive) with HL-60; > 100 µM (inactive) with HT-29; > 100 µM (inactive) in the test with MDA-N; > 100 µM (inactive) with MOLT-4; > 100 µM (inactive) in the test on NCI-H226; 92 µM (inactive) with NCI-H460. Besides, the GI50 with OVCAR-8 was > 100 µM (inactive); in the test on PC-3 it was > 100 µM (inactive); in the test on RXF 393 it was > 100 µM (inactive); in the test with SK-MEL-2, > 100 µM (inactive); in the test with SK-MEL-5, 96.6 µM (inactive); with SW-620, > 100 µM (inactive). For the same compound, the GI50 in the test with T47D was > 100 µM (inactive).

On to `CC(CN(C)C)C(C#N)(c1ccccc1)c1ccccc1` (stereo not given), for which the GI50 is > 100 µM (inactive) in the test on 786-0; > 100 µM (inactive) with A498; > 100 µM (inactive) with ACHN; > 100 µM (inactive) in the test on CAKI-1; > 100 µM (inactive) in the test on HCT-116; greater than 100 µM with HCT-15. In addition, the GI50 in the test on HL-60 is > 100 µM (inactive); in the test with HT-29, 63.7 µM (inactive); in the test on MDA-N, > 100 µM (inactive); in the test with MOLT-4, > 100 µM (inactive); in the test on NCI-H226, > 100 µM (inactive); with NCI-H460 it was > 100 µM (inactive). The GI50 in the test on OVCAR-8 was > 100 µM (inactive); in the test on PC-3 it was 47.6 µM (inactive); with RXF 393, > 100 µM (inactive); in the test on SK-MEL-2, > 100 µM (inactive); in the test on SK-MEL-5, > 100 µM (inactive); in the test on SW-620 it was > 100 µM (inactive). In addition, the GI50 in the test on T47D is > 100 µM (inactive).
